Measured values as given in paper PMC3423427, “Design and Synthesis of Potent N-Acylethanolamine-hydrolyzing Acid Amidase (NAAA) Inhibitor as Anti-Inflammatory Compounds” (PLoS ONE, 2012).
Like-named read-outs stand apart in the source and are kept apart here.

Columns and labels:
rat NAAA = biological target: T1, rat NAAA (Rattus norvegicus, UniProt Q5KTC7); experiment: NAAA enzymatic assay (recombinant rNAAA protein, LC/MS); type: biochemical; settings: IC50 ± S.E.M., triplicate; 25 µM heptadecenoylethanolamide, pH 5.0;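 also: reaction product measured by LC/MS using positive APCI ionization with MRM monitoring, quantified from chromatographic peak areas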
T1 construct: made in house; host or cells: HEK293 cells stably overexpressing rat NAAA (HEK293-rNAAA), a gift from D. Piomelli; crude 800 x g supernatant of sonicated cells
T1 sequence (Q5KTC7 34-362): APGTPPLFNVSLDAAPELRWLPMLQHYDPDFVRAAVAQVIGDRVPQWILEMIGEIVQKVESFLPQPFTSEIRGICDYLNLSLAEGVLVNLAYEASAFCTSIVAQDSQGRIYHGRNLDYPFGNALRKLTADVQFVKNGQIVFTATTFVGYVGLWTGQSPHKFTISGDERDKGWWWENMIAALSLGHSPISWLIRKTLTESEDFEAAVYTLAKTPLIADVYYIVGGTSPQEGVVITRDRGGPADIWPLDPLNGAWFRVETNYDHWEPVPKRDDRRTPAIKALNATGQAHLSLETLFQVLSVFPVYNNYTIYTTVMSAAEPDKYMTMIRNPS
Experimental: HEK293-rNAAA or HEK293-rFAAH cells were harvested, washed with PBS, sonicated in 20 mM Tris-HCl (pH 7.5) containing 0.32 M sucrose, and centrifuged at 800 × g for 15 min at 4°C. The supernatants were collected and protein concentrations were measured by BCA protein assay kit (Pierce, Shanghai, China). […] The reactions were terminated by adding 0.2 mL methanol containing 1 nmol heptadecanoic acid and analyzed in LC/MS.
We use an Agilent 1200-LC system coupled to a 3200Q TRAP-MS detector equipped with an ESI interface (Agilent Technologies, Shanghai, China). […] The column temperature was set at 40°C. […] Mass spectrometer (MS) detection was ionized by positive-ion atmospheric pressure chemical ionization mode (APCI^+) and monitored in MRM mode. […] Quantifications were calculated at chromatographic peak areas by using Analyst® version 1.4.1. software (Applied Biosystems).

[1] = biological target: T2, N-acylsphingosine amidohydrolase (ASAH) (Homo sapiens, UniProt Q13510); experiment: ASAH activity assay (Figure S1); type: biochemical; settings: 100 µM (Figure S1)
T2 sequence (Q13510 22-395): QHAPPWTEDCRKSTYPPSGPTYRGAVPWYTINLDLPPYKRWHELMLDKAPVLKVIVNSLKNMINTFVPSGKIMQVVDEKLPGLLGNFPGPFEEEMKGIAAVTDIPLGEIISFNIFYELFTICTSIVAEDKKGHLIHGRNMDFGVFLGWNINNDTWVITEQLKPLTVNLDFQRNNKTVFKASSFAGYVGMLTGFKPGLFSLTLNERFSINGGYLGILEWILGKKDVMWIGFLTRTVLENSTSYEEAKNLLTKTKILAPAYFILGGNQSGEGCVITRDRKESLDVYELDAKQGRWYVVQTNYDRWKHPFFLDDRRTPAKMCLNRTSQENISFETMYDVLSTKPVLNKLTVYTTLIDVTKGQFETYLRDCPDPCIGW
Experimental: Supplementary file pone.0043023.s001.pdf: Figure S1 Effect of vehicle (open bar) and compound 16 (100 µM, closed bars) on the activity of NAAA, FAAH, MGL, and ASAH. ***, p<0.001, one-way ANOVA, n = 3. (PDF) Click here for additional data file.

[2] = 80% rat plasma, 37°C
Experimental: In terms of the biological stability test, rat plasma was usually chosen as reference in vitro model for drug stability studies, [20], [21]. The hydrolysis of compound 16 was studied in 80% rat plasma at 37°C physiological condition.

IL-6 = settings: RAW264.7, 0.5 µg/ml LPS
Experimental: (§1) HEK293 cells overexpressing rat NAAA (HEK293-rNAAA) and rat FAAH (HEK293-rFAAH) were kind gifts from Dr. Daniele Piomelli in University of California, Irvine. The stable-overexpressing cell lines were maintained in Dulbecco’s Modified Eagle Medium (DMEM, Hyclone, Beijing, China) supplemented with 10% FBS (Gibco®, Shanghai, China) containing 0.3 mg/mL G418. Mouse macrophage cells RAW264.7 and Human Embryonic Kidney cell HEK293 cells were purchased from American Type Culture Collection (ATCC, Beijing, China) and maintained in DMEM supplemented with 10% FBS in humidified 5% CO2 atmosphere at 37°C. RAW264.7 cells were plated and cultured overnight until 80% confluence and then incubated with a series of compound 16 of different concentrations for 30 min before challenged by LPS.
(§2) Total RNA was extracted from RAW264.7 cells with TRIzol (Invitrogen) and quantified by spectrophotometer (Beckman coulter, Shanghai, China). cDNA was synthesized from 1 µg of total RNA by using ReverTra Ace qPCR RT Kit (TOYOBO, Shanghai, China) following the manufacturer’s instructions. Real-time quantitative PCR was performed in a 7300 Real Time PCR System (Applied Biosystems, Shanghai, China) and RNA levels were normalized using glyceraldehyde-3-phosphate dehydrogenase (GAPDH) as an internal standard.

iNOS = settings: RAW264.7, 0.5 µg/ml LPS
Experimental: as §1, §2

NAAA [3] = biological target: T3, NAAA (Rattus norvegicus, UniProt Q5KTC7)
T3 sequence (Q5KTC7 34-362): T1 sequence (Q5KTC7 34-362)
Experimental: HEK293-rNAAA or HEK293-rFAAH cells were harvested, washed with PBS, sonicated in 20 mM Tris-HCl (pH 7.5) containing 0.32 M sucrose, and centrifuged at 800 × g for 15 min at 4°C. The supernatants were collected and protein concentrations were measured by BCA protein assay kit (Pierce, Shanghai, China). NAAA activity was measured by incubating 30 µg recombinant rNAAA protein with testing compound at 37°C for 30 min in 0.2 mL phosphate buffer (50 mM, pH 5.0) containing 0.1% Triton X-100, 3 mM DTT, and 25 µM heptadecenoylethanolamide as substrate. […] The reactions were terminated by adding 0.2 mL methanol containing 1 nmol heptadecanoic acid and analyzed in LC/MS.

NAAA [4] = biological target: T3, NAAA; experiment: Dialysis NAAA assay; type: biochemical; design: made in house; host or cells: HEK293 cells stably overexpressing rat NAAA (HEK293-rNAAA), a gift from D. Piomelli; crude 800 x g supernatant of sonicated cells; settings: 8 hr dialysis
Experimental: Dialysis assay was performed using Slide-A-Lyzer Dialysis Cassettes (Pierce, Shanghai, China). Briefly, 2 mg NAAA protein was incubated with compound 16 or dimethyl sulfoxide (DMSO) in 4 mL Tris-HCl buffer (50 mM, pH 5.0) for 10 minutes at 37°C. Mixed reaction solution was loaded onto a dialysis cartridge using a syringe and incubated in Tris-HCl buffer (50 mM, pH 5.0) at 4°C for 8 h. The samples were removed from Dialysis Cassettes by syringes for NAAA enzymatic assay.

## O=C(CCc1ccc(-c2ccccc2)cc1)N1CCCC1 [Compound 16, 1–(2–Biphenyl–4–yl)ethyl–carbonyl pyrrolidine]
Rat NAAA
  IC50: 2.12 ± 0.41 µM
[1]
  inhibitory effect on ASAH: no inhibitory effect
[2]
  compound remaining, Rat Serum 8h: 89%
  compound remaining, Rat Serum 16h: 64%
[2]; listed as compound 16
  compound remaining, Rat Serum 8h: 89%
  compound remaining, Rat Serum 16h: 64%
IL-6
  LPS-induced IL-6 mRNA expression: reversed dose-dependently
iNOS
  LPS-induced iNOS mRNA expression: reversed dose-dependently
NAAA [3]; 5µM compound 16, […], n = 3
  Vmax of NAAA activity: 5854 ± 511 pmol/min/mg
NAAA [3]; rapid dilution, dialysis and kinetic analysis
  mode of NAAA inhibition: reversible and competitive
NAAA [3]; read-out: Michaelis-Menten constant Km, 5µM compound 16, […]
  Km: 328 ± 98 µM
NAAA [3]; read-out: dissociation constant Ki, calculated from Km (inhibitor) = Km (1+[I]/Ki)
  Ki: 5.65 µM
NAAA [4]
  NAAA activity after dialysis of inhibitor-NAAA complex: almost completely restored the NAAA activity
